Patent US20240368183A1, “Macrocyclic Compounds Having ENT1 Inhibiting Activity” (iTeos Belgium SA, priority 2021, published 2024)
Like-named read-outs stand apart in the source and are kept apart here.

Assays:
[1] = system: stimulated primary human T cells; test: T cell proliferation assay (rescue of proliferation in the presence of ATP); format: cell-based
Protocol: The aim of this study was to determine the potency of equilibrative nucleoside transporter 1 (ENT1) inhibitors to rescue proliferation by stimulated primary human T cells incubated in the presence of 100 uM Adenosine triphosphate (ATP), in baseline conditions (condition A) or in the presence of various proteins known to bind small molecules (condition B)
Condition B: X-VIVO15, 2% Human Serum Albumine (HSA) and 0.1% α-1-Acid Glycoprotein (AAG)
Cryopreserved purified human CD3+ T cells were thawed and washed twice with RPMI1640 medium, UltraGlutamine containing 10% hiFBS.
Cells were suspended in PBS containing 10% hiFBS. Cells were stained with CFSE by adding 2 μM solution in PBS, to get a final 1 μM CFSE solution. Cells were incubated while rotating for 5 minutes. Reaction was stopped by adding PBS with 10% FBS and cells were centrifuged for 5 minutes at 1500 rpm.
Cells were resuspended at 1.6×10^6 cells/mL, either in X-VIVO15 medium or in 4% Human Serum Albumin and 0.2% α-1-Acid Glycoprotein. 50 μL of cell suspension (8×10^4 T cells) was added to wells of sterile round-bottom 96-well plates. Cells were activated by adding 50 μL of anti-CD3 anti-CD28 coated microbeads, suspended either in XVIVO-15 medium or in 4% HSA and 0.2% α-1-Acid Glycoprotein, at a ratio of one microbead per two cells.
Serial dilutions of the ENT1 inhibitors were prepared in X-VIVO15 from 10 mM stock solutions in DMSO, and 50 μL was added to the wells.
ATP powder was diluted in X-VIVO15, and 50 μL of this compound was added to the wells to reach a final assay concentration of 100 μM. Final volume of 200 μL.
The experiments were also performed in 384 well plates—all volumes reduced by a factor of 4 (12.5 μL) with a final volume of 50 μL.
Experiments were performed in duplicate. The cells were placed in a 37° C. humidified tissue culture incubator with 5% CO2 for 72 hours for 96 well plates, 96 hours for 384 well plates After 72 or 96 hours, proliferation was measured determined by CFSE dilution via flow cytometry.

[2] = molecular target: T1, human ENT1 (Homo sapiens, UniProt Q99808); test: ENT1 binding assay (competition with Sahenta-DY647); details: JAR cells expressing ENT1; competition with Sahenta-DY647 (100 nM); 4° C.
T1 construct: JAR cells expressing ENT1 were bought from ATCC® (HTB-144TM); host or cells: JAR cells (human choriocarcinoma line, own knowledge)
T1 sequence (Q99808 1-456): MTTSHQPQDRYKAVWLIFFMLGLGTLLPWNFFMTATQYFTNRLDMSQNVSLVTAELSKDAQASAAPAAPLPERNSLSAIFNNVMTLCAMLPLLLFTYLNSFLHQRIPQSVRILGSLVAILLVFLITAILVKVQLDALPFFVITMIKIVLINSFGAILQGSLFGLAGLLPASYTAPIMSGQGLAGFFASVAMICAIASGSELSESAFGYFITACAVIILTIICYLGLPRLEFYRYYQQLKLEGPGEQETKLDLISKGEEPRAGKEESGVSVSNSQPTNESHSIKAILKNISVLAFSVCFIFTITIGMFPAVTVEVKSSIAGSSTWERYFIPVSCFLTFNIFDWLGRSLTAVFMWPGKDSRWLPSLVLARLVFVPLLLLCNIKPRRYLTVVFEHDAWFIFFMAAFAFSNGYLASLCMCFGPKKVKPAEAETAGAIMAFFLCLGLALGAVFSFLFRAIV
Protocol: The present assay aims at showing that the compounds of the present disclosure can bind to human ENT1. The principle of the assay is a competition between the compounds of this present disclosure and Sahenta-DY647, an ENT1 inhibitor that emits fluorescence (Ex=630 nm, Em=670 nm). By measuring the fluorescence at the end of the assay we could assess the binding potency of the compounds of the present disclosure.
JAR cells expressing ENT1 were bought from ATCC® (HTB-144TM). Cells were cultured in RPMI 1640 medium (LONZA®, #BE12-702F/U1) supplemented with 10% FBS (GIBCO®, #10270-106), 10 mM Hepes (LONZA®, #BE17-737E), 1 mM Sodium Pyruvate (LONZA®, #BE13-115E) and 2% Penicillin/Streptomycin (LONZA®, #DE17-603E) at 37° C. and 5% CO2. The assay was conducted on the following buffer: HBSS (LONZA®, #LO-527F) supplemented with 10 mM Hepes (LONZA®, #BE17-737E) and 0.1% BSA (Miltenyi®, #130-091-376) on the day of the assay.
JAR cells were resuspended in the described buffer. Compounds of the present disclosure and Sahenta-DY647 were diluted 200× in the described buffer.
A total of 50 000 cells were pre-incubated for 30 min at 4° C. with the compounds of the present disclosure before adding the corresponded IC90 of Sahenta-DY647 (100 nM) and incubate once more for 30 min at 4° C. The total volume of the reaction was 100 μL (50 μL of cells, 25 μL of the compounds of the present disclosure and 25 μL of Sahenta-DY647) in a 96 well plate, U-bottom (Greiner®, #650-180). The plates were washed 2× by centrifugation (4 min, 400 rcf at 4° C.) in the same buffer. Cells were re-suspended in 70 μL of the buffer and 50 μL was transferred to a Black 384 Optiplate (PerkinElmer®, #6007279). Fluorescence (Ex=630 nm, Em=670 nm) was acquired on a Spectramax i3x (Molecular Devices®).

[3] = Condition B: X-VIVO15, 2% Human Serum Albumine (HSA) and 0.1% α-1-Acid Glycoprotein (AAG), 100 μM ATP, read-out: (2) T Cell proliferation (Condition B) IC50
[4] = Homo sapiens, Condition A: X-VIVO15, 100 μM ATP, read-out: T Cell proliferation (Condition A) IC50

| SMILES | IC50 [1, 3] | IC50 [1, 4] | IC50 [2] |
| --- | --- | --- | --- |
| COc1cc(C(=O)OC2CCCOc3cc(cc(OC)c3OC)COCCCN3CCCN(CC2)CC3)cc(OC)c1OC (racemic) [Compound 3] | < 1 nM | < 0.1 nM | < 1 nM |
| COc1cc(C(=O)O[C@@H]2CCCOc3cc(cc(OC)c3OC)COCCCN3CCCN(CC2)CC3)cc(OC)c1OC (single isomer, unassigned) [Compound 4] | < 1 nM | < 0.1 nM | 1 to 20 nM |
| COc1cc(C(=O)O[C@H]2CCCOc3cc(cc(OC)c3OC)COCCCN3CCCN(CC2)CC3)cc(OC)c1OC (single isomer, unassigned) [Compound 5] |  |  | 20 to 500 nM |
| COc1cc(C(=O)O[C@H]2CCOc3cc(cc(OC)c3OC)C(=O)NCCCN3CCCN(CC2)CC3)cc(OC)c1OC (stereo in doubt) [Compound 38] |  |  | 500 to 1000 nM |
| COc1cc2cc(c1OC)OCCCC(O/N=C/c1ccccc1)CCN1CCCN(CCCOC2)CC1 (stereo not drawn) [Compound 1] |  |  | 20 to 500 nM |
| COc1cc2cc(c1OC)OCCCC(OC(=O)c1ccccc1)CCN1CCCN(CCCOC2)CC1 (stereo not drawn) [Compound 2] | > 500 nM | 1 to 20 nM | 1 to 20 nM |
| COc1cc2cc(c1OC)OCCCC(OC(=O)CCC(=O)N1CCOCC1)CCN1CCCN(CCCOC2)CC1 (stereo not drawn) [Compound 6] | > 500 nM | < 1 nM | 1 to 20 nM |
| COc1cc2cc(c1OC)OCCCC(OC(=O)c1cnnn1C)CCN1CCCN(CCCOC2=O)CC1 (stereo not drawn) [Compound 7] |  |  | 1 to 20 nM |
| COc1cc2cc(c1OC)OCCCC(OC(=O)c1cn(C)nn1)CCN1CCCN(CCCOC2=O)CC1 (stereo not drawn) [Compound 8] |  |  | 1 to 20 nM |
| COc1cc2cc(c1OC)OCCCC(OC(=O)c1cnn(C)c1)CCN1CCCN(CCCOC2=O)CC1 (stereo not drawn) [Compound 9] | 1 to 20 nM | < 0.1 nM | 1 to 20 nM |
| COc1cc2cc(c1OC)OCCCC(OC(=O)c1ccnn1C)CCN1CCCN(CCCOC2=O)CC1 (stereo not drawn) [Compound 10] | 20 to 500 nM | < 0.1 nM | 1 to 20 nM |
| COc1cc2cc(c1OC)OCCCC(OC(=O)c1ccn(C)n1)CCN1CCCN(CCCOC2=O)CC1 (stereo not drawn) [Compound 11] | > 500 nM | < 1 nM | 1 to 20 nM |
| COc1cc2cc(c1OC)OCCCC(OC(=O)c1cc(C)nn1C)CCN1CCCN(CCCOC2=O)CC1 (stereo not drawn) [Compound 12] | 1 to 20 nM | < 1 nM | 1 to 20 nM |
| COc1ccc(C(=O)OC2CCCOc3cc(cc(OC)c3OC)C(=O)OCCCN3CCCN(CC2)CC3)cc1 (stereo not drawn) [Compound 13] |  |  | 1 to 20 nM |
| COc1cccc(C(=O)OC2CCCOc3cc(cc(OC)c3OC)C(=O)OCCCN3CCCN(CC2)CC3)c1 (stereo not drawn) [Compound 14] |  |  | 1 to 20 nM |
| COc1cc(OC)cc(C(=O)OC2CCCOc3cc(cc(OC)c3OC)C(=O)OCCCN3CCCN(CC2)CC3)c1 (stereo not drawn) [Compound 15] | 1 to 20 nM | < 1 nM | 1 to 20 nM |
| COc1ccc(C(=O)OC2CCCOc3cc(cc(OC)c3OC)C(=O)OCCCN3CCCN(CC2)CC3)cc1OC (stereo not drawn) [Compound 16] | 1 to 20 nM | < 0.1 nM | 1 to 20 nM |
| [2H]C([2H])([2H])Oc1cc(C(=O)O[C@@H]2CCCOc3cc(cc(OC)c3OC)C(=O)NCCCN3CCCN(CC2)CC3)cc(OC([2H])([2H])[2H])c1OC([2H])([2H])[2H] [Compound 17] | 1 to 20 nM | < 0.1 nM | 1 to 20 nM |
| COc1cc(C(=O)OC2CCCOc3cc(cc(OC)c3OC)C(=O)NCCN3CCCN(CC2)CC3)cc(OC)c1OC (stereo not drawn) [Compound 19] | 20 to 500 nM | < 1 nM | 1 to 20 nM |

| SMILES | IC50 [1, 3] | IC50 [1, 4] | IC50 [2] |
| --- | --- | --- | --- |
| COc1cc2cc(c1OC)OCCCC(OC(=O)CCC(=O)N1CCOCC1)CCN1CCCN(CCCNC2=O)CC1 (stereo not drawn) [Compound 20] | > 500 nM | 1 to 20 nM | 20 to 500 nM |
| COc1cc(C(=O)OC2CCCOc3cc(cc(OC)c3OC)C(=O)NCCC(=O)N3CCCN(CC2)CC3)cc(OC)c1OC (stereo not drawn) [Compound 21] | 1 to 20 nM | < 0.1 nM | 1 to 20 nM |
| COc1cc2cc(c1OC)OCCCC(Oc1ncccn1)CCN1CCCN(CCCOC2=O)CC1 (stereo not drawn) [Compound 22] |  |  | 20 to 500 nM |
| COc1cc2cc(c1OC)OCCCC(Oc1nccc3ccccc13)CCN1CCCN(CCCOC2=O)CC1 (stereo not drawn) [Compound 23] | 20 to 500 nM | 1 to 20 nM | 1 to 20 nM |
| COc1cc2cc(c1OC)OCCCC(Oc1nncc3ccccc13)CCN1CCCN(CCCOC2=O)CC1 (stereo not drawn) [Compound 24] | 20 to 500 nM | < 0.1 nM | 1 to 20 nM |
| COc1cc2cc(c1OC)OCCCC(Oc1ccn(C)n1)CCN1CCCN(CCCOC2=O)CC1 (stereo not drawn) [Compound 25] |  |  | 500 to 1000 nM |
| COc1cc2cc(c1OC)OCCCC(OC(=O)N1CCOCC1)CCN1CCCN(CCCOC2=O)CC1 (stereo not drawn) [Compound 26] |  |  | 1 to 20 nM |
| COc1cc2cc(c1OC)OCCCC(OC(=O)N1CCCCC1)CCN1CCCN(CCCOC2=O)CC1 (stereo not drawn) [Compound 27] |  |  | 1 to 20 nM |
| COc1cc2cc(c1OC)OCCCC(n1ncc(-c3ccccc3)n1)CCN1CCCN(CCCOC2=O)CC1 (stereo not drawn) [Compound 28] | 20 to 500 nM | < 1 nM | 1 to 20 nM |
| COc1cc(C(=O)OC2CCCOc3cc(cc(OC)c3OC)C(=O)NCCC(=O)N3CCN(CC2)CC3)cc(OC)c1OC (stereo not drawn) [Compound 31] |  |  | 20 to 500 nM |
| COc1cc2cc(c1OC)OCCCCCCN1CCCN(CCCOC2=O)CC1 [Compound 32] |  |  | 500 to 1000 nM |
| Cn1nnc2cc(C(=O)OC3CCCOc4cc(cc(Cl)c4Cl)C(=O)NCCCN4CCCN(CC3)CC4)ccc21 (stereo not drawn) [Compound 34] |  |  | 500 to 1000 nM |
| COc1cc2cc(c1OC)OCCCC(OCc1ccccc1)CCN1CCCN(CCCOC2=O)CC1 (stereo not drawn) [Compound 35] |  |  | 500 to 1000 nM |
| COc1cc(C(=O)OC2CCCOc3cccc(c3)-c3cn(nn3)CCCN3CCCN(CC2)CC3)cc(OC)c1OC (stereo not drawn) [Compound 36] |  |  | 20 to 500 nM |
| COc1cc(C(=O)O[C@@H]2CCOc3cc(cc(OC)c3OC)C(=O)NCCCN3CCCN(CC2)CC3)cc(OC)c1OC [Compound 39] |  |  | 20 to 500 nM |
| COc1cc(C(=O)OC2CCCOc3cc(cc(OC)c3OC)CCCCCN3CCCN(CC2)CC3)cc(OC)c1OC (stereo not drawn) [Compound 45] |  |  | 1 to 20 nM |
| COc1cc(C(=O)OC2CCCOc3cc(cc(OC)c3OC)C#CCCS(=O)(=O)N3CCCN(CC2)CC3)cc(OC)c1OC (stereo not drawn) [Compound 46] |  |  | 20 to 500 nM |
| COc1cc(C(=O)OCCCN2CCCN(CCCOC(=O)c3cc(OC)c(OC)c(OC)c3)CC2)cc(OC)c1OC [Dilazep, dilazep, reference compound] | 20 to 500 nM | 1 to 20 nM |  |
